Results: patent US20030170791A1, “Gene family encoding membrane steroid receptors” (priority 2001, published 2003)

Tests used:
[1] = target: T1, seatrout recombinant mPR produced in E. coli (Cynoscion nebulosus, UniProt Q801D8); assay: Steroid binding to recombinant seatrout mPR produced in E. coli (single-point, competition, saturation, kinetics); details: for specific binding of 3H-steroid (steroid specificity): single-point assay, 10 nM 3H-steroid with or without 100-fold excess non-radioactive steroid
T1 construct: The coding region of the steroid membrane receptor was amplified by PCR from a full-length cDNA plasmid clone; made in house; host or cells: E. coli BL21 (DE3), pET vector
T1 sequence (Q801D8 1-352): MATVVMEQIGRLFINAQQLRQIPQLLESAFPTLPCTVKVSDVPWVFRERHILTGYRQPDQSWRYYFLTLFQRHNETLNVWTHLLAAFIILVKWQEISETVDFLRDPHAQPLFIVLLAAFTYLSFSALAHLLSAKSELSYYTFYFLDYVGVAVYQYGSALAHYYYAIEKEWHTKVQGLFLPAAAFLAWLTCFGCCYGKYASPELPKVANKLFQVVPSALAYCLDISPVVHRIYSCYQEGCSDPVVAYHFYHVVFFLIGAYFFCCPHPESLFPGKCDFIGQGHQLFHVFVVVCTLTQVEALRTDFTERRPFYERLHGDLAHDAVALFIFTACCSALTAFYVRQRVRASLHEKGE
Procedure: The cloned membrane progestin receptor was expressed in E. coli and the binding of the recombinant protein to steroids was analyzed by a radiolabeled receptor assay.
(§1) The PCR products were purified by electrophoresis using low-melting gel and a QIAquick Gel Extraction Kit. The purified PCR product was ligated into a pET expression vector. The pET vector was transformed into BL21 (DE3) E. coli cells. The positive clones were purified and sequenced. The plasmid without an insert was used as control. Recombinant protein was induced with IPTG at 25° C. and soluble recombinant proteins were extracted and analyzed.
(§2) Initially, steroid specificity of the recombinant receptor was determined from single-point competition assays using 10 nM ^3H-steroid in the absence (total binding) or presence of 100-fold excess non-radioactive steroid (nonspecific binding, FIG. 8).
Full competition curves were generated with 10 nM 3H-progesterone (total binding) or in combination with 1 nM-10 μM of various steroids (FIG. 8).
(§3) Saturation kinetics of H^3-progesterone binding to the recombinant receptor were conducted with 7 progesterone concentrations (range 0.5-40 nM) in the absence (total binding) or presence of 1 μM excess cold steroid (nonspecific binding, FIG. 11).

E. coli control proteins = assay: Steroid binding to E. coli control proteins (vector without insert); details: for binding to the control proteins: single-point assay, 10 nM 3H-steroid
Procedure: as §1
as §2, with “8). […] No binding of P4 and 17-P to the control proteins was observed (FIG. 7).” for “8).”
as §3

[2] = target: T2, recombinant human kidney mSR (Homo sapiens, UniProt Q9NXK6); assay: 3H-progesterone binding to recombinant human kidney mSR (saturation, kinetics, competition); details: for displacement of 3H-progesterone: competition curves, 10 nM 3H-progesterone, 1 nM-10 μM competitor
T2 construct: The coding region of the steroid membrane receptor was amplified by PCR from a full-length cDNA plasmid clone; made in house; host or cells: E. coli
T2 sequence (Q9NXK6 1-330): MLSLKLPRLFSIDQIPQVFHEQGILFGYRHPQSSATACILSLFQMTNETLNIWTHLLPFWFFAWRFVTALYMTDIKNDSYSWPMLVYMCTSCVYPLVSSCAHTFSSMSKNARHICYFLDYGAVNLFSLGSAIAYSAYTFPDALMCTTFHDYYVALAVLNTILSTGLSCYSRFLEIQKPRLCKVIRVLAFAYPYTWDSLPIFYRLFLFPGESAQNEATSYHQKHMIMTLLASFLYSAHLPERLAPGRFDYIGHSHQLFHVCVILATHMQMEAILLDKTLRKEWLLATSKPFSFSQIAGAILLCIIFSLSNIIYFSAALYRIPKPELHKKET
Procedure: (§4) Receptor Binding of Human Membrane Steroid Receptors. Mouse testicular and human testicular and kidney mSR were expressed in E. coli and binding of the recombinant proteins to steroids was studied. The membrane steroid receptor from human brain was not expressed since the clone only contains part of the coding region.
(§5) Binding Characters of Human Kidney Membrane Steroid Receptor. Saturation kinetics of ^3H-progesterone binding to the recombinant human kidney mSR was conducted with 7 progesterone concentrations (range 0.5-40 nM) in the absence (total binding) or presence of 1 μM excess cold steroid (nonspecific binding, FIG. 23).
The specific binding dissociated quickly with a t1/2 dissociation of 2 minutes (FIG. 24).
Full competition curves were generated with 10 nM 3 H-progesterone (total binding) or in combination with 1 nM-10 μM of various steroids (FIG. 25, 26). […] This binding was very specific for 21 carbon steroids lacking a functional group at the 11 position.

[3] = target: T3, recombinant mouse testicular mSR (Mus musculus, UniProt Q80ZE5); assay: Saturation/Scatchard analysis of 3H-progesterone binding to recombinant mouse testicular mSR; details: Scatchard analysis
T3 construct: The coding region of the steroid membrane receptor was amplified by PCR from a full-length cDNA plasmid clone; made in house; host or cells: E. coli
T3 sequence (Q80ZE5 1-354): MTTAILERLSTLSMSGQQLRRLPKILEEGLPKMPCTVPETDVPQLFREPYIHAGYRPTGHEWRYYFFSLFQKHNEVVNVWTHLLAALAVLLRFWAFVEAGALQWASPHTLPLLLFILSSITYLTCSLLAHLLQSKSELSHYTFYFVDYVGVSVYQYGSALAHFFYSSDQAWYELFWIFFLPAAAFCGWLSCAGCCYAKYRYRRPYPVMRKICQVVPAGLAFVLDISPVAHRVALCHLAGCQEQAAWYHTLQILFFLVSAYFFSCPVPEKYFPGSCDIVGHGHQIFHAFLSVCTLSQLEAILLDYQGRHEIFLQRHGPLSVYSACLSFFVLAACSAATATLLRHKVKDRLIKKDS
Procedure: as §4
as §5, with “Characteristics” for “Characters”, “Mouse Testicular” for “Human Kidney”, “mouse testicular” for “human kidney”, “of” for “of 1 μM”, “21).” for “23).”

[4] = target: T4, recombinant human testicular mSR (Homo sapiens, UniProt Q86WK9); assay: Saturation/Scatchard analysis of 3H-progesterone binding to recombinant human testicular mSR; details: Scatchard analysis
T4 construct: The coding region of the steroid membrane receptor was amplified by PCR from a full-length cDNA plasmid clone; made in house; host or cells: E. coli
T4 sequence (Q86WK9 1-346): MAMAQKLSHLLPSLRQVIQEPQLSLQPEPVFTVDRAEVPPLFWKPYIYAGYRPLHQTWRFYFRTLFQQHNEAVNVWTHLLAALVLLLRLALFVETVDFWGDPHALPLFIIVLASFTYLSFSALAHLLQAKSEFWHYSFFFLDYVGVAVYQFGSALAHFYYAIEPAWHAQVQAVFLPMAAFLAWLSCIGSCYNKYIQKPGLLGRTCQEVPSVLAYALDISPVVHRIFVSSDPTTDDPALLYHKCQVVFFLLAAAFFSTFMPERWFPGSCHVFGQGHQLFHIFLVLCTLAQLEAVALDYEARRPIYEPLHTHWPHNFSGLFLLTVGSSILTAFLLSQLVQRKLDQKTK
Procedure: as §4
as §5, with “Characteristics” for “Characters”, “Testicular” for “Kidney”, “testicular” for “kidney”, “22).” for “23).”

[5] = target: T5, solubilized seatrout ovarian membrane progestin (20β-S) receptor (Cynoscion nebulosus, UniProt Q801D8); assay: [3H]20β-S binding to solubilized seatrout ovarian membrane progestin receptor (DCC assay; saturation, Scatchard, association/dissociation); parameters: species or system spotted seatrout (Cynoscion nebulosus)
T5 sequence (Q801D8 1-352): T1 sequence (Q801D8 1-352)
Procedure: 20β-S receptor binding in solubilized membrane preparations was assayed using dextran-coated charcoal (DCC) to separate bound from steroid. The incubation conditions were similar to those used for the intact membrane preparation with the exception that 100-fold excess unlabeled 20β-S was used to determine non-specific binding. The incubation was terminated by adding 1-ml ice-cold DCC suspension (0.1 g dextran T-70 and 1 g charcoal per 100 ml HA buffer). The tubes were vortexed and the reaction mixture was incubated on ice for 5 minutes to absorb free steroid followed by centrifugation at 3200 g for 10 minutes at 4° C. The radioactivities of the filters or supernatants were measured using Beckman LS 6000SC Scintillation Counter (Beckman Instruments Inc., Houston, Tex.).
Saturation kinetics of [^3H]20β-S binding to the solubilized membrane receptor was conducted with six radiolabeled 20β-S concentrations (range 0.25-10 nM) in the absence (total binding) or presence of 100-fold excess cold steroid (non-specific binding). The dissociation constant (Kd) and receptor concentration (Bmax) were calculated from Scatchard plots. One point assays were conducted with 5 nM radiolabeled 20β-S with or without 100-fold excess unlabeled steroid.
The rate of 20β-S association to the solubilized receptor was determined by measuring the specific binding of [^3H]20β-S after-incubation periods of 30 seconds to 24 hours. The rate of dissociation was determined by first allowing samples to equilibrate with tracer for 30 minutes before the addition of 100-fold excess unlabeled 20β-S and incubation for periods of 30 seconds to 24 hours.

## CC(=O)[C@@]1(O)CC[C@H]2[C@@H]3CCC4=CC(=O)CC[C@]4(C)[C@H]3CC[C@@]21C [17-P, 17-hydroxyprogesterone]
[1]; competition curves, 10 nM 3H-progesterone, 1 nM-10 μM competitor
  displacement of 3H-progesterone: equipotent with P4
[1]
  specific binding of 3H-steroid (steroid specificity): high affinity
E. coli control proteins
  binding to the control proteins: No binding
[2]
  displacement of 3H-progesterone: equipotent with P4

## C[C@]12CCC(=O)C[C@@H]1CC[C@@H]1[C@@H]2CC[C@]2(C)[C@@H](O)CC[C@@H]12 [5α-dihydrotestosterone]
[1]
  specific binding of 3H-steroid (steroid specificity): no specific binding

## CC(=O)[C@H]1CC[C@H]2[C@@H]3CCC4=CC(=O)CC[C@]4(C)[C@H]3CC[C@]12C [progesterone]
[1]
  Kd: 0.03 µM
  specific binding of 3H-steroid (steroid specificity): Highest specific binding
[1]; Scatchard analysis, 3H-progesterone
  Bmax: 0.49 nM
E. coli control proteins; saturation analysis, 3H-progesterone
  specific binding to E. coli control proteins: no specific binding
E. coli control proteins
  binding to the control proteins: No binding
[3]
  Bmax: 0.304 nM
[3]; 3H-progesterone 0.5-40 nM
  Kd: 0.029 µM
[4]
  Bmax: 0.47 nM
[4]; 3H-progesterone 0.5-40 nM
  Kd: 0.037 µM
[2]; Scatchard analysis
  Bmax: 0.54 nM
[2]; Scatchard analysis, 3H-progesterone 0.5-40 nM
  Kd: 0.028 µM

## Vitamin D
[2]
  displacement of 3H-progesterone: no displacement

## CC12CCC(=O)C=C1CCC1C2CCC2(C)C1CCC2(O)C(O)CO (stereo not drawn) [20β-S, 17,20β,21-trihydroxy-4-pregnen-3-one]
[5]; Scatchard analysis, [3H]20β-S
  Bmax: 0.204 pmol g^−1 ovary
[5]; after 100-fold excess unlabeled 20β-S
  time to full displacement: ≤ 20 min
[5]; equilibrium study
  time to reach saturation of binding: ≤ 15 min
[5]; saturation analysis
  concentration at which saturation was achieved: approximately 10 nM
[1]
  specific binding of 3H-steroid (steroid specificity): did not show any specific binding

## C[C@]12CC(=O)[C@H]3[C@@H](CCC4=CC(=O)CC[C@@]43C)[C@@H]1CC[C@@H]2O [11-ketotestosterone]
[1]
  specific binding of 3H-steroid (steroid specificity): no specific binding

## C[C@@H](O)[C@@]1(O)CC[C@H]2[C@@H]3CCC4=CC(=O)CC[C@]4(C)[C@H]3CC[C@@]21C [17,20β-P, 17,20β-dihydroxy-4-pregnen-3-one]
[1]
  specific binding of 3H-steroid (steroid specificity): did not show any specific binding

## C[C@]12CC[C@H]3[C@@H](CCC4=CC(=O)CC[C@@]43C)[C@@H]1CC[C@@H]2O [testosterone]
[1]
  specific binding of 3H-steroid (steroid specificity): no specific binding

## CC[C@H](C)[C@@H]1NC(=O)[C@H](Cc2ccc(O)cc2)NC(=O)[C@@H](N)CSSC[C@@H](C(=O)N2CCC[C@H]2C(=O)N[C@@H](CC(C)C)C(=O)NCC(N)=O)NC(=O)[C@H](CC(N)=O)NC(=O)[C@H](CCC(N)=O)NC1=O [oxytocin]
[2]
  displacement of 3H-progesterone: no displacement
